Results as given in publication PMC7344389, “Discovery of Anti-Amoebic Inhibitors from Screening the MMV Pandemic Response Box on Balamuthia mandrillaris, Naegleria fowleri, and Acanthamoeba castellanii” (Pathogens, 2020).

Tested on: Acanthamoeba castellanii trophozoites
Test: CellTiter-Glo 2.0 trophocidal assay, A. castellanii
Format: cell-based
Settings: for IC50: 72 h, CTG method, duplicate twofold serial dilutions from 10 µM, mean ± SD; for Selectivity Index (A549 IC50/A. castellanii IC50): SI = (IC50 A549)/(IC50 Amoeba); for potency against A. castellanii, in words: dose-response, CTG
Description: This isolate was also purchased from ATCC. Trophozoites were routinely grown axenically at 27 °C in Protease Peptone-Glucose Media (PG) in non-vented 75 cm^2 tissue culture flasks (Olympus, El Cajon, CA, USA), until the cells were 80–90% confluent. For sub-culturing, cells were mechanically harvested to detach the cells from the culture flasks. The cells were collected by centrifugation at 4000 rpm at 4 °C.
The trophocidal activity of compounds was assessed using the CellTiter-Glo 2.0 luminescent viability assay (Promega, Madison, WI, USA), as previously described. Trophozoites were routinely cultured as described above and only logarithmic trophozoites were used. […] Initially all compounds were assessed in a single-point drug screen at 10 and 1 μM, as previously described. […] We used this process to reduce the number of potential false positives. Drugs were cherry-picked, dissolved in the media specific to each parasite, and assessed in twofold serial dilutions from the highest concentration of 10 μM. All assays were incubated at each of the parasites’ representative growth temperatures, described above, for 72 h. At the 72 h time point, 25 μL of CellTiter-Glo 2.0 reagent was added to all wells of the 96-well plates using the Biomek NX^P automated workstation. The plates were protected from light and contents were mixed using an orbital shaker at 300 rpm at room temperature for 2 min to induce cell lysis. After shaking, the plates were equilibrated at room temperature for 10 min to stabilize the luminescent signal. The adenosine triphosphate (ATP) luminescent signal (relative light units; RLUs) was measured at 490 nm with a SpectraMax I3X plate reader (Molecular Devices, Sunnyvale, CA, USA). Drug inhibitory concentration (IC50) curves were generated using total ATP RLUs, where controls were calculated as the average of replicates using the Levenberg–Marquardt algorithm, using DMSO as the normalization control, as defined in Collaborative Drug Discovery Inc. (CDD) Vault (Burlingame, CA, USA). Values reported are from a minimum of two biological replicates with standard deviations.

Structure (SMILES)	IC50 (Acanthamoeba castellanii) [µM]	Selectivity Index (A549 IC50/A. castellanii IC50)	Selectivity Index (A549 IC50/A. castellanii IC50) (listed as ravuconazole)	potency against A. castellanii, in words	IC50 [µM]	IC50 (listed as butenafine) [µM]	Selectivity Index (A549 IC50/A. castellanii IC50) (listed as terbinafine)
CC(=O)Oc1ccccc1C(=O)Nc1ncc([N+](=O)[O-])s1 [Nitazoxanide]	> 10						
C[C@@H](c1nc(-c2ccc(C#N)cc2)cs1)[C@](O)(Cn1cncn1)c1ccc(F)cc1F [Ravuconazole]	0.02 ± 0.01	≥625	≥ 10	nanomolar potency			
CN(Cc1ccc(C(C)(C)C)cc1)Cc1cccc2ccccc12 [Butenafine]		≥5.08			1.97 ± 1.76	≤ 10	
Cc1[nH]c2ccccc2c1CCNCc1ccc(/C=C/C(=O)NO)cc1 [Panobinostat]	> 10						
CN(C/C=C/C#CC(C)(C)C)Cc1cccc2ccccc12 [Terbinafine]	0.56 ± 0.28	≥18		nanomolar potency			≥ 10
